EPA's ToxValDB 9.5 (doi:10.2903/j.efsa.2010.1624)
≈ marks a conversion by molar mass, not a printed value.

Experiments:
Anas platyrhynchos = settings: oral, mortality
Canidae = settings: subchronic; duration: 90 days; oral; Dog Other; histopathology: nonneoplastic
Daphnia magna = settings: chronic/long-term; duration: 21 days
Plant = settings: chronic/long-term; development
Typhlodromus pyri = settings: not reported
Folsomia candida = settings: chronic/long-term; reproduction
Apis mellifera = settings: acute; duration: 48 hours; oral; unspecified; mortality
Mus musculus = settings: acute; oral; mortality
[1] = reproduction developmental, reproduction

CC(C)N1C(=O)N(c2ccccc2)CSC1=NC(C)(C)C [Buprofezin]
LC50 (Tagia sp.; acute, duration: 14 days, mortality): > 1000 mg/kg
NOEC (Tagia sp.; chronic/long-term, reproduction): 500 mg/kg
LD50 (Anas platyrhynchos; acute, unspecified): > 2000 mg/kg-day
LC50 (Anas platyrhynchos; short-term, feed): > 1310 mg/kg-day
LC50 (Oncorhynchus mykiss; acute, duration: 96 hours, mortality): 0.33 µg/mL (≈ 1.08 µM)
NOEC (Oncorhynchus mykiss; chronic/long-term, growth): 0.052 mg/L
LD50 (Rattus norvegicus; acute, oral, mortality): > 2000 mg/kg-day
NOAEL (Rattus norvegicus; chronic, duration: 2 years, histopathology: nonneoplastic): 1 mg/kg-day
NOAEL (Rattus norvegicus; developmental, development): 50 mg/kg-day
NOEL (Rattus norvegicus; [1]): 66 mg/kg-day
NOAEL (Canidae): 10 mg/kg-day
NOEC (Daphnia magna): 0.08 mg/L
LEL (Plant): > 100 g/ha
LEL (Typhlodromus pyri; mortality): 3000 g/ha
LEL (Typhlodromus pyri; reproduction): 3000 g/ha
NOEC (Folsomia candida): 62.5 mg/kg
LD50 (Apis mellifera): > 164 µg/piece
LC50 (Colinus virginianus; acute, oral, diet, mortality): > 1310 mg/kg-day
LD50 (Colinus virginianus; acute, oral, mortality): > 2000 mg/kg-day
NOEC (Colinus virginianus; developmental, development): 48 mg/kg-day
NOEC (Colinus virginianus; [1]): 198 mg/kg-day
LD50 (Mus musculus): > 2000 mg/kg-day
